# Earlier results as cited in Sander's compilation of Henry's law constants (doi:10.1016/s0045-6535(00)00505-1).
# Experiment: Henry solubility constant Hcp at 298.15 K (mol/(m3 Pa))
# Details: reference: Staudinger and Roberts (2001); cited value
row,SMILES,Henry solubility constant Hcp
1,"ClCC(Cl)(Cl)Cl [1,1,1,2-tetrachloroethane]",0.024
2,"CC(Cl)(Cl)Cl [1,1,1-trichloroethane]",0.00059
3,"ClCC(Cl)Cl [1,1,2-trichloroethane]",0.011
4,"C=C(Cl)Cl [1,1-dichloroethene]",0.00034
5,"ClCC(Cl)CCl [1,2,3-trichloropropane]",0.036
6,"CC(Cl)CCl (centres undefined) [1,2-dichloropropane]",0.0034
7,"Cc1ccccc1C [1,2-dimethylbenzene]",0.002
8,"Cc1cccc(C)c1 [1,3-dimethylbenzene]",0.0014
9,"Cc1ccc(C)cc1 [1,4-dimethylbenzene]",0.0013
10,CCCCO[N+](=O)[O-] [1-butyl nitrate],0.0088
11,CC(=O)c1ccccc1 [1-phenylethanone],1.1
12,CC(=O)C(=O)O [2-oxopropanoic acid],3000
13,CCCC(C)O[N+](=O)[O-] (centres undefined) [2-pentyl nitrate],0.0037
14,CC(C)c1ccccc1 [(2-propyl)-benzene],0.0012
15,O=Cc1ccccc1 [benzaldehyde],0.38
16,c1ccccc1 [benzene],0.0017
17,ClC(Cl)Br [bromodichloromethane],0.004
18,CBr [bromomethane],0.0017
19,Clc1ccccc1 [chlorobenzene],0.0027
20,CCCl [chloroethane],0.00084

row,SMILES,Henry solubility constant Hcp
1,C=CCl [chloroethene],0.00039
2,ClC(Br)Br [dibromochloromethane],0.0086
3,FC(F)(Cl)Cl [dichlorodifluoromethane],3.1e-05
4,ClCCl [dichloromethane],0.0036
5,CSC [dimethyl sulfide],0.0053
6,CC#N [ethanenitrile],0.51
7,CC(=O)OO [ethanoic peroxyacid],7.3
8,CCc1ccccc1 [ethylbenzene],0.0013
9,OCOO [hydroxymethyl hydroperoxide],16000
10,CI [iodomethane],0.002
11,CS [methanethiol],0.0028
12,COO [methyl hydroperoxide],3.1
13,Cc1ccccc1 [methylbenzene],0.0015
14,CCCCC(=O)O [pentanoic acid],23
15,CC(C)=O [propanone],0.28
16,ClC(Cl)=C(Cl)Cl [tetrachloroethene],0.00059
17,ClC(Cl)(Cl)Cl [tetrachloromethane],0.00034
18,BrC(Br)Br [tribromomethane],0.017
19,ClC=C(Cl)Cl [trichloroethene],0.001
